Key:
[1] = test system: HCV genotype 1b subgenomic replicon; assay: Anti-Hepatitis C replicon assay, genotype 1b (luciferase); type: cell-based; conditions: Hepatitis C virus; luciferase activity measured 48 hours later; read-out: HCV Genotype 1B Replicon pEC50 (converted)
In short: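 The 1b line is ET cells carrying the I389luc-ubi-neo/NS3-3′/ET replicon with adaptive mutations E1202G, T1280I and K1846T; the 1a line is an Apath replicon line modified with firefly luciferase. Cells were exposed 48 h to compound (final 0.03 pM–50 μM, 0.5-1% DMSO), read by Steady-Glo luciferase, and IC50 came from 10-point four-parameter logistic fits; cytotoxicity was read by CellTiter-Glo.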

[2] = test system: respiratory syncytial virus (RSV); assay: RSV plaque assay on HEp-2 cells; type: cell-based
Procedure: A broad spectrum of antiviral activity of Example 1 was accessed by testing it for potency against other viruses. (See FIG. 8). […] RSV (long form) was inoculated on the layer of HEp-2 cells at multiplicity of infection of <0.001. After 4 hour post infection, the inoculum was replaced with 0.3% agarose containing MEM and various concentration of Example 1 or IFNα. The cells were incubated for up to 5-6 days until the plaques were visible. The cells were then fixed with 3% formaldehyde and stained with neutral red for visualization.

Question: Which EC50 [1] does the source give for FC(F)(F)c1cc(C(F)(F)F)c2ccc3nc(-c4nnco4)cn3c2n1 [Compound 1, 2-[2,4-bis(trifluoromethyl)imidazo[1,2-a]1,8-naphthyridin-8-yl]-1,3,4-oxadiazole] here?
Answer: 200 nM

Question: What about the RSV plaques ([2]; 1 μM, compared to DMSO-only) of the same compound?
Answer: reduced the number of plaques

Question: And the RSV plaques ([2]; 5 μM)?
Answer: no visible clear plaque

From patent US20140249143A1, “Compounds And Methods For Enhancing Innate Immune Responses” (GlaxoSmithKline LLC, priority 2011, published 2014)
